These results are taken from paper PMC9084593 (Cell reports, 2022).

In one assay the target is GlmU (Streptococcus pneumoniae, UniProt Q04KU2). Kind of assay: DTNB colorimetric acetyltransferase assay, […] nm. Conditions: 0.4 mM GlcN-1-P, 1 mM acetyl CoA, 5 mM MgCl2, pH 7.5, 37°C. The assay is classed as biochemical.
In another assay the target is T1, GlmM (Streptococcus pneumoniae, UniProt Q04JI8).
T1 sequence (Q04JI8 1-450): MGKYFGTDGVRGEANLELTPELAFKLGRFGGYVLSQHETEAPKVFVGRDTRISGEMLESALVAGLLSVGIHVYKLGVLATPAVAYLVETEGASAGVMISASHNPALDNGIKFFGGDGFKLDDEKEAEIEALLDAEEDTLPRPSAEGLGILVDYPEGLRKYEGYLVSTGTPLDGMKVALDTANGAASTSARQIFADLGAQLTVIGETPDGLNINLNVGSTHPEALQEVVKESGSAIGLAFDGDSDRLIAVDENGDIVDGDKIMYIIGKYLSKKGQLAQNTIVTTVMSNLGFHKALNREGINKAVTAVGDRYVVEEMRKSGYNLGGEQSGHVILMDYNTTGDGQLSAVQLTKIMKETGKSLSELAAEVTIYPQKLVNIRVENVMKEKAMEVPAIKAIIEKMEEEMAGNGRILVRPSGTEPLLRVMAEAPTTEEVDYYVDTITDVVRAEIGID
Kind of assay: GlmU-coupled DTNB colorimetric mutase assay, […] nm. The assay is classed as biochemical. Conditions: 0.4 mM GlcN-6-P, 2 mM acetyl CoA, 5 mM MgCl2, pH 7.5, 37°C.

Chain of GlmU (Q04KU2 whole entry): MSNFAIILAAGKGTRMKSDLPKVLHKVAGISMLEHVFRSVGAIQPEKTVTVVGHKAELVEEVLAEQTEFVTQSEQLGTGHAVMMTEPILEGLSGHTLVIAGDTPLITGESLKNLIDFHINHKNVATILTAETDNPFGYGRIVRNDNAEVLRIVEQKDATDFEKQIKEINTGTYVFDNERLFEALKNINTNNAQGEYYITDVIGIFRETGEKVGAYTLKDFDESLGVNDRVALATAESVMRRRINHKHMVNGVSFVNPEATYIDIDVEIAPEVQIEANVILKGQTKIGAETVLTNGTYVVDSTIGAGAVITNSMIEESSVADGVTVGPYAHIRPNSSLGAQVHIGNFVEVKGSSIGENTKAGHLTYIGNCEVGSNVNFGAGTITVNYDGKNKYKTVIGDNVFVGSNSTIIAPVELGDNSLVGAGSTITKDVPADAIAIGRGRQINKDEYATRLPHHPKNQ

For the compound `N[C@H]1[C@@H](OP(=O)(O)O)O[C@H](CO)[C@@H](O)[C@@H]1O` [GlcN-1-P], the “DTNB colorimetric acetyltransferase assay, 412 nm” value at GlmU is “The GlcN-1-P acetyltransferase activities of the GlmU and the GlmUE315AH330A variant were measured”.

On to `N[C@H]1C(O)O[C@H](COP(=O)(O)O)[C@@H](O)[C@@H]1O` (some centres unmarked) [GlcN-6-P], for which the “GlmU-coupled DTNB colorimetric mutase assay, 412 nm” value on GlmM was “The glucosamine-6-phosphate (GlcN-6-P) mutase activity of GlmM was assayed”.
